Results on five molecules are retold here after patent US7935682B2, “Wound healing dressing for enhancing fibrocyte formation” (William Marsh Rice University, priority 2002, dated 2011).

The test system of this assay is monocyte to fibrocyte differentiation (PBMC). As to the kind of experiment: Fibrocyte differentiation assay: PBMC cultured in serum-free medium, fibrocytes enumerated by morphology. It is filed as cell-based, human. The note with it: for number of fibrocytes in culture: concentrations between 10 and 0.1 ng/ml; for number of fibrocytes in culture / ability to inhibit fibrocyte differentiation: PBMC in serum-free medium; for ability to inhibit fibrocyte differentiation: commercially available purified proteins, 6 days. Here is the method: The rapid appearance of these cells, within 3 days of culture, was inhibited by human serum or plasma. To examine this process in more detail, PBMC were cultured at 5×10^5 cells per ml in serum-free medium containing increasing concentrations of human plasma for 6 days. […] The activity in the serum that inhibited fibrocyte formation was retained by a 30 kDa cutoff spin-filter (data not shown).
Plasma was fractionated by BaCl2 precipitation, heparin and ion exchange chromatography. Protein concentrations were assessed by spectrophotometry at 280 nm. Inhibition of fibrocyte differentiation was assessed by morphology. The fibrocyte inhibitory activity of a sample was defined as the reciprocal of the dilution at which it inhibited fibrocyte differentiation by 50%, when added to serum-free medium.
Serum amyloid P is a constitutive plasma protein and is closely related to CRP, the major acute phase protein in humans. […] Serum and plasma contain between 30-50 μg/ml SAP.
Cells were incubated in serum-free medium: RPMI (GibcoBRL Life, Invitrogen, Carlsbad, Calif., USA) supplemented with 10 mM HEPES (GibcoBRL/Life), 2 mM glutamine, 100 U/ml penicillin and 100 μg/ml streptomycin, 0.2% bovine serum albumin (BSA, Sigma), 5 μg/ml insulin (Sigma), 5 μg/ml iron-saturated transferrin (Sigma) and 5 ng/ml sodium selenite (Sigma). Normal human serum (Sigma), normal human plasma (Gulf Coast Regional Blood Center) or fetal calf serum (Sigma), column fractions, sera and synovial fluid from patients or purified proteins were added at the stated concentrations. Patient samples were obtained from a repository available to researchers at University of Texas Medical School at Houston. This repository keeps patient information confidential, and meets all NIH guidelines.
PBMC were cultured in 24 or 96 well tissue culture plates in 2 ml or 200 μl volumes respectively (Becton Dickinson, Franklin Lakes, N.J.) at 2.5×10^5 cells per ml in a humidified incubator containing 5% CO2 at 37° C. for the indicated times. Fibrocytes in 5 different 900 μm diameter fields of view were enumerated by morphology in viable cultures as adherent cells with an elongated spindle-shaped morphology as distinct from small lymphocytes or adherent monocytes. Alternatively cells were air dried, fixed in methanol and stained with haematoxylin and eosin (Hema 3 Stain, VWR, Houston, Tex.). Fibrocytes were counted using the above criterion and the presence of an oval nucleus. Enumeration of fibrocytes was performed on cells cultured for 6 days in flat-bottomed 96 well plates, with 2.5×10^4 cells per well. In addition, fibrocyte identity was confirmed by immunoperoxidase staining (see below). The fibrocyte inhibitory activity of a sample was defined as the reciprocal of the dilution at which it inhibited fibrocyte differentiation by 50%, when added to serum-free medium.
Experiments have shown that IL-4 and IL-13 are capable of promoting fibrocyte differentiation in vitro. Specifically, PBMC were cultured in serum-free medium in the presence of IL-4 or IL-13. […] Therefore a bandage or other topical agarose formulation as described above additionally containing IL-4 and/or IL-13 is expected to show further improvements in wound healing.

For “IL-13: cytokine, activator of the fibrotic response”, the “number of fibrocytes in culture” value is recorded as “enhanced the number of fibrocytes”.
For “SAP: commercially available purified human serum amyloid P (Calbiochem), a pentraxin plasma protein”, the “ability to inhibit fibrocyte differentiation” value is “able to inhibit fibrocyte differentiation”. Besides, the “activity from dilution curve” value (commercially available SAP) is given as “approximately 6.6×10^3 units/mg”. Also, for the setting “commercially available purified SAP”, the “concentration of maximal inhibitory activity” value worked out at 1 µg/mL. In addition, the “SAP concentration at the plasma dilution at which fibrocytes began to appear, comparable to the threshold concentration of purified SAP” value (worked out from 0.5% plasma and 30-50 μg/ml SAP) was 0.15 to 0.25 µg/mL.

B1: Protein S: purified human protein S, vitamin K-dependent anticoagulant (Calbiochem) (protein, UniProt P07225 42-676, looked up)
Vitamin K-dependent protein S: ANSLLEETKQGNLERECIEELCNKEEAREVFENDPETDYFYPKYLVCLRSFQTGLFTAARQSTNAYPDLRSCVNAIPDQCSPLPCNEDGYMSCKDGKASFTCTCKPGWQGEKCEFDINECKDPSNINGGCSQICDNTPGSYHCSCKNGFVMLSNKKDCKDVDECSLKPSICGTAVCKNIPGDFECECPEGYRYNLKSKSCEDIDECSENMCAQLCVNYPGGYTCYCDGKKGFKLAQDQKSCEVVSVCLPLNLDTKYELLYLAEQFAGVVLYLKFRLPEISRFSAEFDFRTYDSEGVILYAESIDHSAWLLIALRGGKIEVQLKNEHTSKITTGGDVINNGLWNMVSVEELEHSISIKIAKEAVMDINKPGPLFKPENGLLETKVYFAGFPRKVESELIKPINPRLDGCIRSWNLMKQGASGIKEIIQEKQNKHCLVTVEKGSYYPGSGIAQFHIDYNNVSSAEGWHVNVTLNIRPSTGTGVMLALVSGNNTVPFAVSLVDSTSEKSQDILLSVENTVIYRIQALSLCSDQQSHLEFRVNRNNLELSTPLKIETISHEDLQRQLAVLDKAMKAKVATYLGGLPDVPFSATPVNAFYNGCMEVNINGVQLDLDEAISKHNDIRAHSCPSVWKKTKNS
As for B1, the “ability to inhibit fibrocyte differentiation” value is listed as “only SAP was able to inhibit fibrocyte differentiation”.

B2: CRP: purified human C-reactive protein (Calbiochem) (protein, UniProt P02741 19-224, looked up)
C-reactive protein: QTDMSRKAFVFPKESDTSYVSLKAPLTKPLKAFTVCLHFYTELSSTRGYSIFSYATKRQDNEILIFWSKDIGYSFTVGGSEILFEVPEVTVAPVHICTSWESASGIVEFWVDGKPRVRKSLKKGYTVGAEASIILGQEQDSFGGNFEGSQSLVGDIGNVNMWDFVLSPDEINTIYLGGPFSPNVLNWRALKYEVQGEVFTKPQLWP
Take B2: the “ability to inhibit fibrocyte differentiation” value is “only SAP was able to inhibit fibrocyte differentiation”.

B3: IL-4: cytokine, activator of the fibrotic response (protein, UniProt P05112 25-153, looked up)
Interleukin-4: HKCDITLQEIIKTLNSLTEQKTLCTELTVTDIFAASKNTTEKETFCRAATVLRQFYSHHEKDTRCLGATAQQFHRHKQLIRFLKRLDRNLWGLAGLNSCPVKEANQSTLENFLERLKTIMREKYSKCSS
Consider B3, for which the “number of fibrocytes in culture” value is given as “enhanced the number of fibrocytes”.
